Data on twelve molecules can be found in ChEMBL document CHEMBL1130956 (Bioorg Med Chem Lett, 1998).

In assay [1] the target is T1, Cysteinyl leukotriene receptor 1 (Cavia porcellus, UniProt Q2NNR5).
T1 sequence (Q2NNR5 whole entry): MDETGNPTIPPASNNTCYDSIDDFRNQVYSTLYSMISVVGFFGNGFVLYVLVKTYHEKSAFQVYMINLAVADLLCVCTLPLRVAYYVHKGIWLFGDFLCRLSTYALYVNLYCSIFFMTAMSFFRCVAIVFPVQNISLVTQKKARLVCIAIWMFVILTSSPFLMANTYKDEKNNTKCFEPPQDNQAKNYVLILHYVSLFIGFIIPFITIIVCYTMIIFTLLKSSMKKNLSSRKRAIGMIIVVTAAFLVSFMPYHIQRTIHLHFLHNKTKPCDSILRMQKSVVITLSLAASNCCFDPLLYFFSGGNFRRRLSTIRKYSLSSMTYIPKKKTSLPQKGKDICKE
Briefly: Binding affinity against leukotriene D4 receptor in [3H]LTD4 binding assay.

The subject of a further assay is U-937. Briefly: Ability to mobilize Ca+2 in LTD4 dependent Ca+2 mobilization assay in differentiated human monocytic U-937 cells. It counts as functional, cell-based.
The test system of assay [2] is Cavia porcellus. The assay can be described thus: In vivo activity was determined after 1 mg/kg oral administration for 1 hr in a guinea pig efficacy model for allergic airway obstruction. It counts as functional.
The test system of assay [3] is Cavia porcellus. Briefly: In vivo activity was determined after oral administration for 1 hr in a guinea pig efficacy model for allergic airway obstruction. It counts as functional.
Assay [4] relates to Cavia porcellus. The assay can be described thus: In vivo activity was determined after 1 mg/kg oral administration for 2 hrs in a guinea pig efficacy model for allergic airway obstruction. In kind it is functional.
Assay [5] relates to Cavia porcellus. The assay can be described thus: In vivo activity was determined after oral administration for 2 hr in a guinea pig efficacy model for allergic airway obstruction. It counts as functional.
The subject of assay [6] is Cavia porcellus. Briefly: In vivo activity was determined after oral administration for 2 hrs in a guinea pig efficacy model for allergic airway obstruction. In kind it is functional.

Take `COc1cc(C(=O)NS(=O)(=O)c2ccccc2C)ccc1Cc1cn(C(=O)N(C)C)c2ccc(NC(=O)OC3CCCC3)cc12`: the figures for the IC50 (in assay [1]; in the assay on U-937) were 0.4 nM and 1 nM, respectively. This molecule also gave an inhibition in vivo at 1 mg/kg in the assay on Cavia porcellus [2] of 39%.

As for `COc1cc(C(=O)NS(=O)(=O)c2ccccc2C)ccc1Cc1cn(C(N)=O)c2ccc(NC(=O)OC3CCCC3)cc12`, the IC50 in assay [1] was found to be 0.5 nM; in the assay on U-937 it was 0.3 nM. The ED50 with Cavia porcellus [3] amounted to 1.6 mg/kg.

As for `COc1cc(C(=O)NS(=O)(=O)c2ccccc2C)ccc1Cc1cn(C(F)F)c2ccc(NC(=O)OC3CCCC3)cc12`, the IC50 was 1 nM in assay [1] and 0.4 nM in the assay with U-937. In the assay on Cavia porcellus [4], this molecule displayed an inhibition in vivo at 1 mg/kg of 58%.

Consider `COc1cc(C(=O)NS(=O)(=O)c2ccccc2C)ccc1Cc1cn(C(=O)N2CCOCC2)c2ccc(NC(=O)OC3CCCC3)cc12`, for which the IC50 in assay [1] came to 0.4 nM; in the assay with U-937 it was 2 nM. Moreover, the Inhibition in the assay with Cavia porcellus [3] stood at 8%.

Turning to `COc1cc(C(=O)NS(=O)(=O)c2ccccc2C)ccc1Cc1cn(C(=O)NCCN(C)C)c2ccc(NC(=O)OC3CCCC3)cc12`, the figures for the half-maximal inhibitory concentration (IC50) (in assay [1]; with U-937) were 0.5 nM and 0.1 nM, respectively. Besides, the Inhibition with Cavia porcellus [3] was 34%.

Take `COc1cc(C(=O)NS(=O)(=O)c2ccccc2C)ccc1Cc1c[nH]c2ccc(NC(=O)OC3CCCC3)cc12` [N-DEALKYLATED DERIVATIVE]: the IC50 in assay [1] was found to be 1 nM; in the assay with U-937, 2 nM. Further, the inhibition in vivo at 1 mg/kg in the assay with Cavia porcellus [2] is 40%.

Turning to `COc1cc(C(=O)NS(=O)(=O)c2ccccc2C)ccc1Cc1cn(C(=O)NCCCc2ccccc2)c2ccc(NC(=O)OC3CCCC3)cc12`, the figures for the IC50 (in assay [1]; in the assay on U-937) were 0.5 nM and 0.1 nM, respectively. The molecule also gave an ED50 with Cavia porcellus [3] of 1.6 mg/kg.

Regarding `CCN(CC)C(=O)n1cc(Cc2ccc(C(=O)NS(=O)(=O)c3ccccc3C)cc2OC)c2cc(NC(=O)OC3CCCC3)ccc21`, the figures for the IC50 (in assay [1]; in the assay on U-937) were 0.5 nM and 0.8 nM, respectively. The same molecule showed an ED50 with Cavia porcellus [3] of 1.2 mg/kg.

For `COc1cc(C(=O)NS(=O)(=O)c2ccccc2C)ccc1Cc1cn(C(=O)N(C)c2ccccc2)c2ccc(NC(=O)OC3CCCC3)cc12`, the IC50 was 0.4 nM in assay [1] and 0.2 nM in the assay on U-937. Moreover, the ED50 in the assay on Cavia porcellus [5] came out at 1.1 mg/kg.

Take `COc1cc(C(=O)NS(=O)(=O)c2ccccc2C)ccc1Cc1cn(C)c2ccc(NC(=O)OC3CCCC3)cc12` [ZAFIRLUKAST]: the IC50 in the assay with U-937 stood at 1 nM. Besides, the 50% effect level with Cavia porcellus [6] (ED50) was put at a dose of 0.9 mg/kg.

For the molecule `COc1cc(C(=O)NS(=O)(=O)c2ccccc2C)ccc1Cc1cn(C(=O)N(c2ccccc2)c2ccccc2)c2ccc(NC(=O)OC3CCCC3)cc12`, the results for the IC50 (in assay [1]; with U-937) were 2 nM and 0.4 nM, respectively. In the assay with Cavia porcellus [5], the ED50 was 1.1 mg/kg.

For `COc1cc(C(=O)NS(=O)(=O)c2ccccc2C)ccc1Cc1cn(C=O)c2ccc(NC(=O)OC3CCCC3)cc12`, the IC50 in assay [1] amounted to 1 nM; with U-937 it was 0.6 nM. In the assay with Cavia porcellus [3], it took a dose of 0.84 mg/kg to reach the 50% effect level (ED50).

As usually defined, the IC50 is the point on the concentration scale where inhibition reaches its midpoint. Low values mean greater potency, high ones weaker potency. In general, inhibition in vivo refers to the percentage by which the read-out fell short of the control. Read a high inhibition in vivo as strong suppression. One may read the ED50 as the dose that gives a 50% effect, or the effect in half of the subjects. A high value points to a need for a large dose. For orientation: Inhibition means the drop in the measured response relative to a control, in per cent. Read a low Inhibition as a weak effect.
